Earlier results on 2 compounds are cited in patent US20110306626A1, “IMIDAZOLINONE DERIVATIVES AS CGRP RECEPTOR ANTAGONISTS” (priority 2008, published 2011).

Data set [1] relates to acute attacks of migraine. The following applies: clinical trials (Olesen et al. 2004).
Data set [2] concerns headache induced by CGRP infusion. The note with it: control group (Petersen et al. 2005).
Data set [3] concerns facial blood flow. The following applies: marmoset, electrical stimulation of the trigeminal ganglion (Doods et al. 2000).
The subject of the next data set is middle meningeal artery. The following applies: rats, electrical stimulation of the dura mater, prior administration (Williamson et al. 1997).
Data set [4] has as its system facial blood flow. The note with it: rat, trigeminal ganglion stimulation (Escott et al. 1995).

Ends that are not written are not given here.

With `NCCCC[C@H](NC(=O)[C@@H](Cc1cc(Br)c(O)c(Br)c1)NC(=O)N1CCC(N2Cc3ccccc3NC2=O)CC1)C(=O)N1CCN(c2ccncc2)CC1` [BIBN4096BS], the “treatment of acute attacks of migraine” value in data set [1] was “effective in treating acute attacks of migraine”. Besides, the “prevention of headache induced by CGRP infusion” value in data set [2] is listed as “able to prevent headache induced by CGRP infusion”. The “increase in facial blood flow” value in the data set with facial blood flow [3] was “could be blocked”.

On to “CGRP(8-37): a peptide CGRP antagonist; fragment of CGRP that lacks seven N-terminal amino acid residues (VTHRLAGLLSRSGGVVKNNFVPTNVGSKAF; ends and bridges not checked; UniProt P06881 90-119, looked up, fragment)”, for which the “increase of the diameter of the middle meningeal artery” value in the data set with middle meningeal artery is listed as “blocked”. Moreover, the “increase of facial blood flow” value in the data set with facial blood flow [4] is “inhibited”.
